The target in assay [1] is T1, D3 receptors from African Green monkey (Chlorocebus aethiops, UniProt P52703).
T1 construct: expressed in transfected cells; host or cells: COS cells
Put plainly: D3 receptor binding (displacement of 3H-YM 09151-2). The note with it: COS cells with recombinant D3 receptors; 0.5 nM 3H-YM 09151-2; nonspecific binding with 1 mM spiperone. As for the experimental part: (§1) Pellets of COS cells containing recombinantly produced D2 or D3 receptors from African Green monkey were used for the assays. The sample is homogenized in 100 volumes (w/vol) of 0.05M Tris HCI buffer at 4° C and pH 7.4. The sample is then centfifuged at 30,000×g and resuspended and rehomogenized. The sample is then centdfuged as described and the final tissue sample is frozen until use. The tissue is resuspended 1:20 (wt/vol) in 0.05M Tris HCl buffer containing 100 mM NaCl.
(§2) Incubations are carried out at 48° C and contain 0.4 ml of tissue sample, 0.5 nM ^3 H-YM 09151-2 and the compound of interest in a total incubation of 1.0 ml. Nonspecific binding is defined as that binding found in the presence of 1 mM spiperone; without further additions, nonspecific binding is less than 20% of total binding. The binding characteristics of representative compounds of the invention for D2 and D3 receptor subtypes are shown in Table 2 for rat striatal homogenates.

In assay [2] the target is D2 receptors from African Green monkey. Put plainly: D2 receptor binding (displacement of 3H-YM 09151-2). The note with it: COS cells with recombinant D2 receptors; 0.5 nM 3H-YM 09151-2; nonspecific binding with 1 mM spiperone. The protocol: as §1, §2

Structures can show the parent of a compound that is named as a salt.

T1 sequence (P52703 whole entry): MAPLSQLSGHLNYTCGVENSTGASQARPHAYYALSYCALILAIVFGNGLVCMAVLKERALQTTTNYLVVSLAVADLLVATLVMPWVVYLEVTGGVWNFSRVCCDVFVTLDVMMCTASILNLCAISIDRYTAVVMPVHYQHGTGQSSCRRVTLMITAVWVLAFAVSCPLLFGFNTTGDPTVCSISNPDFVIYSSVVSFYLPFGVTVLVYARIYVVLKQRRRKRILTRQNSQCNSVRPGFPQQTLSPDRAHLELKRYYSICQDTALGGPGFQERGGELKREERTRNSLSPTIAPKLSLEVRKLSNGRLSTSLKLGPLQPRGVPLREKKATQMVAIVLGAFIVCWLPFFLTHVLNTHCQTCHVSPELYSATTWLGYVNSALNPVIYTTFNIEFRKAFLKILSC

Consider `O=C(NCCCCN1CCN(c2nccc3ccccc23)CC1)c1ccc2c(c1)-c1ccccc1-2` [Compound 4, 1-(1-Isoquinolyl)-4-{4-[N-(1-biphenylene-2-carboxamido)]butyl}piperazine d ihydrochloride], for which the Ki in assay [1] was 15 nM; in assay [2], above 100 nM.
For `COc1ccccc1N1CCN(CCCCNC(=O)c2ccc3c(c2)-c2ccccc2-3)CC1` [Compound 1, 1-(2-Methoxyphenyl)-4-{4-[N-(1-biphenylene-2-carboxamido)]butyl}piperazine], in that order: 5 nM and 323 nM.
Consider `O=C(NCCCCN1CCN(c2cccc3ccccc23)CC1)c1ccc2c(c1)-c1ccccc1-2` [Compound 3, 1-(1-Napthyl)-4-{4-[N-(1-biphenylene-2-carboxamido)]butyl}piperazine dihydrochloride], for which the figures for the Ki in assay [1] and in assay [2] were 3 nM and 138 nM, respectively.

For the origin of these results see patent publication US5703083A, “N-aminoalkyl-1-biphenylenyl-2-carboxamides; new dopamine receptor subtype specific ligands” (Neurogen Corporation, priority 1996, dated 1997).
